Data set [1] can be described thus: Rat liver microsomal stability assay (RLM). In kind it is in vitro ADME. Conditions: 37° C., 1 h time course, read-out: RLMclearance. The source says:
(§1) In vitro measurement of substrate metabolism can be determined using the microsomal cytochrome P450 mono-oxygenase system. This is a useful application in ranking clearance of a number of compounds by Phase I (including cytochrome P450) metabolism prior to in vivo assessment Measurement of intrinsic clearance using these methods also allows a comparison of species difference to be made to assist with translation of pharmacokinetic parameters from preclinical to clinical study.
(§2) Rat and Human Liver Microsomal Stability Assay (RLM and HLM Respectively)
(§3) Human and rat Liver microsomal assays were performed using pooled microsomes from the Pfizer Global Supply (BD Gentest™). Chemical reagents were purchased from commercial sources (Sigma-Aldrich) and drug entities synthesised at Pfizer Global Research. Incubation mixtures contained 50 mM phosphate buffer pH 7.4, 5 mM MgCl2, 5 mM isocitric acid and 1 unit/ml isocitric dehydrogenase. The microsomes were defrosted at room temperature and sufficient volumes added to give a final concentration of 0.5 nmol cytochrome P450/ml. Following the addition of 1 μM of substrate, the incubation was pre-incubated at 37° C. for 5 minutes. The reaction was then initiated by the addition of 1 mM NADP and incubation aliquots are taken over a 1 h time course. The reaction was subsequently stopped by addition of acetonitrile cooled on ice. The incubation mixture was then centrifuged and the supernatant removed for injection onto LC-MS/MS system. Providing that the substrate concentration is below the Km, the metabolism should be first order giving a log-linear plot of substrate disappearance over time. The gradient of this line is the first order rate constant (k) and this maybe converted to estimate a substrates intrinsic clearance when factoring in the protein concentration.
(§4) The intrinsic clearance in rat or human liver microsomes is calculated from:
(§5) Where, k=−slope of Ln concentration vs. time (min−1)

The nature of a further data set: physchem. Conditions: pH 7.4.
The nature of data set [2]: Human liver microsomal stability assay (HLM). The conditions noted are these: 37° C., 1 h time course, read-out: HLM clearance. It is filed as in vitro ADME.
Source text: as §1, §2, §3, §4, §5

Data set [3] deals with T1, mu opioid receptor (Homo sapiens, UniProt P35372). Briefly: Beta-arrestin recruitment assay (DiscoveRx PathHunter). In kind it is cell-based. Also on record: host or cells: U2OS cells. The protocol:
The ability of agonists to cause recruitment of beta-arrestin to the mu opioid receptor was measured using DiscoveRx PathHunter technology. A pro-linked tagged mu-opioid receptor and an EA-tagged beta-arrestin were expressed in U20S cells and beta-arrestin recruitment measured following the methodology in McGuinness et al., 2009 (J Biomol Screen 14:49-58, Characterizing cannabinoid CB2 receptor ligands using DiscoverRx PathHunter beta-arrestin assay—McGuinness D., Malikzay A., Visconti R., Lin K., Bayne M., Monsma F., Lunn C A.)
Data appear in the Table below under “arrestin EC50” in nM.
Target sequence in this assay (P35372 whole entry, species assumed): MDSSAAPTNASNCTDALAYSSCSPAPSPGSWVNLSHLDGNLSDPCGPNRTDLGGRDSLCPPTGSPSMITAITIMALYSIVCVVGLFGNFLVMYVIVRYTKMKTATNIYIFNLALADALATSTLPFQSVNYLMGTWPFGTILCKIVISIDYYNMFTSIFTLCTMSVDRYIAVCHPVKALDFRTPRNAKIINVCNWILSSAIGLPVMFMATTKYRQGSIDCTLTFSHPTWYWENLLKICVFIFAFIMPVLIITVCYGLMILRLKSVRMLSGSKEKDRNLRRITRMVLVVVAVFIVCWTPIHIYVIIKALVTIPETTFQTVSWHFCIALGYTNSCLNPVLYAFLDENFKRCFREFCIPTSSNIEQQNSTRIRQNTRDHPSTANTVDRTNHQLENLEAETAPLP
Target sequence in this assay (P32121 whole entry partner, species assumed): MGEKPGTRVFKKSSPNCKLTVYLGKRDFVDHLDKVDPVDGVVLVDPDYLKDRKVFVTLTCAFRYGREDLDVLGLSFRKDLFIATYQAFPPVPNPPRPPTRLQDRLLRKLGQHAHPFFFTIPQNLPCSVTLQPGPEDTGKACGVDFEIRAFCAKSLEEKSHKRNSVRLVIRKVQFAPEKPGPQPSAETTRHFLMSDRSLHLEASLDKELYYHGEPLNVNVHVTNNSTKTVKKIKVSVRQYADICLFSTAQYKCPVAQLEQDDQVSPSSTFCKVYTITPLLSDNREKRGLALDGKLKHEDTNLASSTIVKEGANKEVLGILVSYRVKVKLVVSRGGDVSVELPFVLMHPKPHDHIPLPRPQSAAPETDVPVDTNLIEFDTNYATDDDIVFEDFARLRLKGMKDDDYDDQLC

The target of data set [4] is T1, mu opioid receptor. Nature of the data set: Inhibition of forskolin stimulated cAMP production (alphascreen). In kind it is cell-based. Also on record: expressed in transfected cells; host or cells: CHO cells. The protocol: Forskolin Stimulated cAMP
The ability of mu opioid receptor agonists to inhibit forskolin stimulated cAMP production was measured in CHO cells recombinantly expressing the mu opioid receptor, using alphascreen technology as described in Nickolls et al., 2005, with the additional inclusion of 50 uM forskolin in the assay buffer. (J Pharmacol Exp Ther 313; 1281-88, Functional selectivity of melanocortin 4 receptor peptide and non-peptide agonists: Evidence for ligand specific conformational states. Nickolls S A., Fleck B., Hoare S., Maki R.)
Data appear in the Table below under “mu-opioid IC50” in nM.
Target sequence in this assay (P35372 whole entry, species assumed): as the sequence (P35372 whole entry, species assumed) above

For data set [5] the following is noted: octanol / 0.1M phosphate buffer pH 7.4, positive controls; cited from earlier work.
Where [6] appears, read: pH 7.4, rat liver microsomes, 1 μM substrate.
The mark [7] stands for this setting: pH 7.4, human liver microsomes, 1 μM substrate.
[8] abbreviates: U20S cells expressing pro-linked tagged mu-opioid receptor and EA-tagged beta-arrestin, read-out: β-Arrestin EC50.
Setting [9] is: CHO cells recombinantly expressing the mu opioid receptor, 50 uM forskolin, read-out: mu-opioid IC50.

Structures are written as SMILES. Like-named read-outs stand apart in the source and are kept apart here.

One may read the logD as lipophilicity at a set pH, counting ionised and neutral species. A higher logD goes with higher lipophilicity. As a reminder, the EC50 is the midpoint of the concentration-response curve. As a reminder, the IC50 is the concentration that gives 50% inhibition.

Source text for physchem: LogD octanol (pH 7.4) is a measure of lipophilicity that accounts for both hydrophobic and hydrogen-bonding interactions of a given substrate. This assay is based on shake-flask methodology, performed in a fully automated manner in a 0.1M phosphate buffer pH7.4—octanol system.
After addition of the test substance in DMSO stock solution to the mixture and vigorous agitation followed by separation of the octanol and buffer layers by centrifugation, duplicate samples are removed from each layer and diluted prior to analysis by LC-MS/MS.
The duplicate log D values must be with 0.4 log units of each other and the positive controls must be within 0.2 log units of the known log D value.

Take `Cc1cc(O)cc(C)c1C[C@H](NC(=N)N)C(=O)N[C@H](C)C(=O)NCC(CNC(=N)N)Cc1ccccc1` (mixture of isomers) [Example 2]: the figures for the microsomal CLint at 1 μM in data set [1] (setting [6]) and in data set [2] (setting [7]) were 8.5 µL/min/mg and 15.9 µL/min/mg, respectively. In the data set “physchem”, this compound came in with a logD of -0.7. The EC50 on mu opioid receptor [3] (setting [8]) is 34.8 nM.
Turning to `Cc1cc(O)cc(C)c1C[C@H](NC(=N)N)C(=O)N[C@H](C)C(=O)NC[C@H](Cc1ccccc1)NC(=N)N` [Example 1, N-[Amino(imino)methyl]-2,6-dimethyl-L-tyrosyl-N-[(2S)-2-{[amino(imino)methyl]amino}-3-phenylpropyl]-D-alaninamide], the results for the microsomal CLint at 1 μM in data set [1] (setting [6]) and in data set [2] (setting [7]) were 8.5 µL/min/mg and 10.6 µL/min/mg, respectively. In addition, the log distribution coefficient (logD) in “physchem” was -0.2. The IC50 at mu opioid receptor [4] (setting [9]) was 26 nM. Besides, the EC50 on mu opioid receptor [3] (setting [8]) was determined as 41.4 nM.
As for `Cc1cc(O)cc(C)c1C[C@H](N=C(N(C)C)N(C)C)C(=O)N[C@H](C)C(=O)NC[C@H](Cc1ccccc1)NC(=N)N` [Example 3], the 50% effective concentration (EC50) at mu opioid receptor [3] amounted to 10000 nM.
Take `C[C@@H](NC(=O)[C@H](Cc1ccc(O)cc1)NC(=N)N)C(=O)NC[C@H](Cc1ccccc1)NC(=N)N` [Example 4]: the microsomal CLint at 1 μM in data set [1] (setting [6]) came out at 13.4 µL/min/mg; in data set [2] (setting [7]), 9.54 µL/min/mg. The pH-dependent lipophilicity (logD) in the data set “physchem” is -0.3. Also, the EC50 at mu opioid receptor [3] came out at 5070 nM.
Consider `Cc1cc(O)cc(C)c1C[C@H](NC(=N)N)C(=O)N[C@H](C)C(=O)NC[C@H](Cc1ccccc1)NC(=O)CNC(=N)N` [Example 5], for which the concentration for a half-maximal effect (EC50) at mu opioid receptor [3] (setting [8]) was found to be 47.6 nM.
Take `Cc1cc(O)cc(C)c1C[C@H](NC(=N)N)C(=O)N[C@H](C)C(=O)NC[C@H](Cc1ccccc1)NC(=O)CCNC(=N)N` [Example 6]: the figures for the microsomal CLint at 1 μM in data set [1] (setting [6]) and in data set [2] (setting [7]) were 8.5 µL/min/mg and 8 µL/min/mg, respectively. This compound also yielded a concentration for a half-maximal effect (EC50) on mu opioid receptor [3] of 162 nM.
As for `Cc1cc(O)cc(C)c1C[C@H](NC(=N)N)C(=O)N[C@H](CCCCCC(=O)O)C(=O)NCCCc1ccccc1` [Example 7], the microsomal CLint at 1 μM in data set [1] (setting [6]) is 9.48 µL/min/mg; in data set [2] (setting [7]), 8.61 µL/min/mg. This compound came in with a logD in the data set “physchem” of 0.8. This compound had an IC50 against mu opioid receptor [4] of 116 nM. The EC50 on mu opioid receptor [3] turned out to be 2460 nM.
Consider `CC(=O)N[C@H](CNC(=O)[C@@H](C)NC(=O)[C@H](Cc1c(C)cc(O)cc1C)NC(=N)N)Cc1ccccc1` [Example 8], for which the results for the microsomal CLint at 1 μM in data set [1] (setting [6]) and in data set [2] (setting [7]) were 12.1 µL/min/mg and 15.4 µL/min/mg, respectively. The log distribution coefficient (logD) in the data set “physchem” was -0.35. The IC50 on mu opioid receptor [4] (setting [9]) turned out to be 26.6 nM.
`Cc1cc(O)cc(C)c1C[C@H](NC(=N)N)C(=O)N[C@H](C)C(=O)NC[C@@H](N)Cc1ccccc1` [Example 9]: the microsomal CLint at 1 μM in data set [1] (setting [6]) came to 12.9 µL/min/mg; in data set [2] (setting [7]), 13.6 µL/min/mg. Also, the half-inhibitory concentration (IC50) on mu opioid receptor [4] (setting [9]) was determined as 15.3 nM. Besides, the EC50 at mu opioid receptor [3] (setting [8]) was 55.2 nM.
With `Cc1cc(O)cc(C)c1C[C@H](NC(=N)N)C(=O)N[C@H](CC[S+](C)[O-])C(=O)NC[C@H](Cc1ccccc1)NC(=N)N` (stereo partly drawn) [Example 10, N-alpha-[amino(imino)methyl]-N-[(1R)-1-{[(2S)-2-{[amino(imino)methyl]amino}-3-phenypropyl]carbamoyl}-3-(methylsulfinyl)propyl]-2,6-dimethyl-L-tyrosinamide bis-trifluoroacetate], the concentration giving a half-maximal response (EC50) at mu opioid receptor [3] (setting [8]) stood at 17.6 nM.
As for `Cc1cc(O)cc(C)c1C[C@H](NC(=N)N)C(=O)N[C@H](C)C(=O)NCCCc1ccccc1` [Example 11, (S)-2-Guanidino-3-(4-hydroxy-2,6-dimethyl-phenyl)-N-[(R)-1-(3-phenyl-propylcarbamoyl)-ethyl]-propionamide], the microsomal CLint at 1 μM in data set [1] (pooled rat liver microsomes, pH 7.4, 1 μM substrate) was determined as 61 µL/min/mg; in data set [2] (pooled human liver microsomes, pH 7.4, 1 μM substrate) it was 74 µL/min/mg. Also, in the data set “physchem” (octanol / 0.1 M phosphate buffer), the logD was -0.1. Further, half-maximal inhibition on mu opioid receptor [4] (IC50) required 8.59 nM.
As for `CN(C)CCC=C1c2ccccc2CCc2ccccc21` [amitriptyline], the “log D (known value of positive control)” value in data set [5] is 2.7±0.2.
With `Cc1ncc2n1-c1ccc(Cl)cc1C(c1ccccc1F)=NC2` [midazolam], the “log D (known value of positive control)” value in data set [5] was 3.3±0.2.

Values taken from patent US8598123B2, “Peptide analogues” (Pfizer Inc., priority 2010, dated 2013).
